Laboratory results: patent US11241434B2, “Compositions and methods for improving cognition in a subject” (Yale University, priority 2013, dated 2022)

Tested on: PS19 mice
Assay: Morris water maze in P301S Tau (PS19) transgenic mice
Format: in vivo, mouse
Settings: 8-month-old PS19 mice, 6 months of treatment, 5 mg/kg/d in diet
From the text: FIGS. 11A-11C illustrate that Fyn kinase inhibition prevents memory deficits in P301S Tau transgenic tice. FIG. 11A: Timeline of PS19 mouse treatment. FIG. 11B: Morris water maze probe trial for 8-month-old PS19 or WT mice after 6 months of AZD0530 or Vehicle treatment. Twenty four hours after the reverse learning trials in the Morris water maze, the submerged platform was removed and the fraction of 60 sec spent in the target quadrant where the hidden platform had been located previously was recorded. n=11-15/group, each dot is one mouse. Data are mean±SEM. Dashed line indicates random chance performance. […] Latency was measured as the time for the mouse to cross to the opaque box. n=16-18/group. […]
To generate chow containing chow for chronic dosing, the compound was incorporated into purified diet pellets by Research Diets, Inc. by dissolving the compound in a solution of 0.5% w/v Hydroxypropylmethylcellulose/0.1% w/v polysorbate 80 at 1.429 mg/ml. […] The dosage of the drug in the food was calculated to take into account the average amount of food eaten by a mouse in a single day per kg of weight and adjusted to be equivalent to ingesting 5 mg/kg per day.
The Morris water maze paradigm was performed as previously described (Kaufman et al., 2015, Ann Neurol 77:953-971). […] Latency was measured as the time that it took for the mouse to find and spend 1 second on the hidden platform. […]

## CN1CCN(CCOc2cc(OC3CCOCC3)c3c(Nc4c(Cl)ccc5c4OCO5)ncnc3c2)CC1 [saracatinib, N-(5-chloro-benzo[d][1,3]dioxol-4-yl)-7-(2-(4-methylpiperazin-1-yl)ethoxy)-5-(tetrahydro-2H-pyran-4-yloxy)quinazolin-4-amine]
  probe trial after reverse learning, time in target quadrant: significantly improved the memory deficit
